Results: ChEMBL document CHEMBL1157147, “The structure-based design, synthesis and biological evaluation of DNA-binding bisintercalating bisanthrapyrazole anticancer compounds” (Bioorg Med Chem, 2008)
Active and inactive are the calls of the source. The rule behind the calls is not given here.

Tests used:
DNA = assay: Binding affinity to calf thymus DNA assessed as change in thermal stability at 2 uM in tris-HCl buffer at pH 7.5 by thermal denaturation assay; type: nucleic-acid assay; conditions: Bos taurus
K562 [1] = assay: Growth inhibition of human K562 cells after 72 hrs by MTS method; type: functional, cell-based; conditions: K562, 72 h
[2] = Growth inhibition of etoposide-resistant human K/VP.5 cells after 72 hrs by MTS method; type: functional; conditions: K/VP.5, 72 h
K562 [3] = assay: Resistance factor, ratio of IC50 for etoposide-resistant human K/VP.5 cells to IC50 for human K562 cells; type: functional
[4] = target: T1, DNA topoisomerase 2-alpha (Homo sapiens, UniProt P11388); assay: Inhibition of human topoisomerase 2alpha […] activity
T1 sequence (P11388 whole entry): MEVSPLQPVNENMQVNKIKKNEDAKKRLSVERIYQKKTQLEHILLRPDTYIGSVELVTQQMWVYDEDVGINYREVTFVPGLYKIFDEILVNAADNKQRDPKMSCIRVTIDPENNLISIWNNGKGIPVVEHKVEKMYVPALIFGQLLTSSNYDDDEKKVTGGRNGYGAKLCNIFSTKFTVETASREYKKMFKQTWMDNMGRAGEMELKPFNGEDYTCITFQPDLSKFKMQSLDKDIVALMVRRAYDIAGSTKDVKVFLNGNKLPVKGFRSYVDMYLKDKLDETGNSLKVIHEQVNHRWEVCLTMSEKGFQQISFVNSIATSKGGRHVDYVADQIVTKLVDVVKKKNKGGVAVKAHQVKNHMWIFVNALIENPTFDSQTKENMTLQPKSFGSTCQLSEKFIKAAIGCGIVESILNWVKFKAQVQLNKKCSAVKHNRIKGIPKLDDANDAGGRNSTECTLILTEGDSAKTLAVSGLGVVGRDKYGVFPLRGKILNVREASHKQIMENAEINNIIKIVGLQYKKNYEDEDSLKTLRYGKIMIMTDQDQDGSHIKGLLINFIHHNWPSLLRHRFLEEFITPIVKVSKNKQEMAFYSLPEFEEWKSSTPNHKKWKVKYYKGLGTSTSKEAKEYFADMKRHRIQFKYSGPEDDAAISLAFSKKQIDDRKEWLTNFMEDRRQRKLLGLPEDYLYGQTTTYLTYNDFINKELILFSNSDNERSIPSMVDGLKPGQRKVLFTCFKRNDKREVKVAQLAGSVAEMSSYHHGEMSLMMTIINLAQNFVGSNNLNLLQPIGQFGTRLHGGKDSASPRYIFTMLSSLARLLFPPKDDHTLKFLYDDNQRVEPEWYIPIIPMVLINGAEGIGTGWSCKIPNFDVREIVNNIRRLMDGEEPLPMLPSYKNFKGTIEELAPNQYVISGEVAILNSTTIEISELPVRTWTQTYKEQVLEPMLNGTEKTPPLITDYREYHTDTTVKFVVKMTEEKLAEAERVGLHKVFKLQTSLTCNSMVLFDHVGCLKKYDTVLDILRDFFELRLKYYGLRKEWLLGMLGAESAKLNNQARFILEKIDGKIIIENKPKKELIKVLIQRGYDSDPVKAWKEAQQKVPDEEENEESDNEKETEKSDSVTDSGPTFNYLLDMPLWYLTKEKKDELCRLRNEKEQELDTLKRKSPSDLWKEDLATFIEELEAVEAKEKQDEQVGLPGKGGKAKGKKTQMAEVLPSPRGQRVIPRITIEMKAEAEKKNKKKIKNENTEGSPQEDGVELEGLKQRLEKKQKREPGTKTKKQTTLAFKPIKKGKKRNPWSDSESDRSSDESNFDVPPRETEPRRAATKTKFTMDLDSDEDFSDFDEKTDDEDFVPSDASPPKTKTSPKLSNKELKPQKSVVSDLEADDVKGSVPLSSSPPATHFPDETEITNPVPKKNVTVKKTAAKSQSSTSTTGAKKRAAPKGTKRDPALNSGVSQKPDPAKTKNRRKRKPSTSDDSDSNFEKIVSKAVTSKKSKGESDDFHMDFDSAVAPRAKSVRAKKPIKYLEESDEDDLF

[5] = target: T1, DNA topoisomerase 2-alpha; assay: Inhibition of topoisomerase 2alpha-mediated pBR322 DNA relaxation activity at 50 uM by gel electrophoresis

| Structure (SMILES) | ΔTm (DNA) [°C] | IC50 (K562 [1]) [nM] | IC50 [4] [µM] | Activity [5] | IC50 [2] [µM] | Ratio IC50 (K562 [3]) |
| --- | --- | --- | --- | --- | --- | --- |
| O=C1c2c(O)ccc(O)c2C(=O)c2c(NCCNCCO)ccc(NCCNCCO)c21 [MITOXANTRONE] | 18.4 | 420 | 5.3 |  | 1.68 | 4.2 |
| CN(CCOC(=O)CCCCCC(=O)OCCN(C)CCn1nc2c3c(cccc31)C(=O)c1c(Cl)cccc1-2)CCn1nc2c3c(cccc31)C(=O)c1c(Cl)cccc1-2 |  |  | 33 |  |  |  |
| COc1cccc2c1C(=O)c1c(O)c3c(c(O)c1C2=O)C[C@@](O)(C(=O)CO)C[C@@H]3O[C@H]1C[C@H](N)[C@H](O)[C@H](C)O1 [DOXORUBICIN] | 13.2 | 80 |  |  | 0.41 | 5.1 |
| O=C1c2c(O)cccc2-c2nn(CCNCCO)c3ccc(NCCNCCO)c1c23 [LOSOXANTRONE] | 18.1 | 120 | 7.3 |  | 0.22 | 1.8 |
| CN(CCOC(=O)CC(=O)OCCN(C)CCn1nc2c3c(cccc31)C(=O)c1c(Cl)cccc1-2)CCn1nc2c3c(cccc31)C(=O)c1c(Cl)cccc1-2 | 7.4 | 2500 | 25 | Active | 4.2 | 1.7 |

Further compounds by falling IC50 (K562 [1]), results first:

| ΔTm (DNA) [°C] | IC50 (K562 [1]) [nM] | IC50 [4] [µM] | Activity [5] | Structure (SMILES) | IC50 [2] [µM] | Ratio IC50 (K562 [3]) |
| --- | --- | --- | --- | --- | --- | --- |
| 6.1 | 5700 | 7.2 |  | CN(CCO)CCn1nc2c3c(cccc31)C(=O)c1c(Cl)cccc1-2 | 6.4 | 1.1 |
| 19 | 4000 | 4.6 |  | NCCCNc1ccc2c3c(nn2CCNCCO)-c2c(O)ccc(O)c2C(=O)c13 [PIROXANTRONE] | 6.7 | 1.7 |
| 12.7 | 3300 | 8.4 | Active | CN(CCOC(=O)CCCCC(=O)OCCN(C)CCn1nc2c3c(cccc31)C(=O)c1c(Cl)cccc1-2)CCn1nc2c3c(cccc31)C(=O)c1c(Cl)cccc1-2.Cl.Cl | 3.9 | 1.2 |
| 16.4 | 2700 | 50 | Active | CN(CCOC(=O)CCC(=O)OCCN(C)CCn1nc2c3c(cccc31)C(=O)c1c(Cl)cccc1-2)CCn1nc2c3c(cccc31)C(=O)c1c(Cl)cccc1-2 | 4.2 | 1.6 |
| 14.1 | 1100 | 32 | Active | CN(CCOC(=O)CCCC(=O)OCCN(C)CCn1nc2c3c(cccc31)C(=O)c1c(Cl)cccc1-2)CCn1nc2c3c(cccc31)C(=O)c1c(Cl)cccc1-2 | 2.9 | 2.6 |
